Laboratory results: patent US20250059139A1, “COMPOUNDS FOR TREATMENT OF CANCER” (THE JOHNS HOPKINS UNIVERSITY, priority 2021, published 2025)
Like-named read-outs stand apart in the source and are kept apart here.

Key:
LNCaP cells = experiment: In vitro growth of LNCaP cells; assay type: cell-based, human; conditions: for LNCaP growth when combined with 3 nM docetaxel: 10 μM compound + 3 nM docetaxel
Source text: Prostate Cancer Models. The source, history, and characteristics of the human prostate cancer cell lines and PDXs used, as well as cell culture conditions for their in vitro maintenance and the in vivo protocol for xenograft growth in triple immune-deficient NSG (i.e. NOD.Cg-PrkdcScidIl2rgtmlWji/Szj), adult (>8 week old) male mice obtained from the Sidney Kimmel Comprehensive Cancer Center (SKCCC) Animal Core Facility are described previously (Isaacs 2013; Brennen et al. JCI Insight. 2021, 6(8):e146827; Zhu et al. Oncogene 2020, 39(45): 6935-6949). Similar information concerning the TRAMP-C2 and B6CaP mouse prostate cancers originating in a C57BL/6J male mice are described previously (Foster et al. Cancer Res. 1997, 57: 3325-3330; Simons et al. Oncotarget. 2019, 10(64):6845-6854). In vitro growth curves were determined as described (Isaacs 2013). In vivo growth response to oral daily TasQ (10 mg/kg/d) of TRAMP-C2 mouse prostate cancers was evaluated in C57BL/6J syngeneic wild type vs. NOX-2 vs. iNOS null male mice obtained from Jackson Laboratory (Bar Harbor, ME). Growth response to oral daily TasQ (10 mg/kg/d) of TRAMP-C2 and B6CaP mouse prostate cancers was also evaluated in S100A9 null C57BL′6J male mice obtained from Dmitry Gabrilovich (Wistar Institute). All lines were mycoplasma negative using the MycoSensor PCR Assay kit (Agilent Technologies) and genetically authenticated within the last 6 months using short tandem repeat profiling conducted by the Johns Hopkins Genetic Resource Core Facility. In vitro growth curves were determined as described (Isaacs 2013). Growth response to daily oral TasQ vs. ESATA-20 (both at 10 mg/kg/d) of Myc-CaP-CR mouse prostate cancer was evaluated in syngeneic FVB/NJ castrate male mice from Jackson Laboratory. Animal studies were conducted according to animal protocols approved by Johns Hopkins Animal Care and Use Committee. Tumor volume measurements were as described previously (id.). In vivo experiments were repeated multiple independent times for each model used with 3-5 mice per treatment grouping.
Similarly, under such optimal conditions, knocking down HDAC4 expression by 50% with shRNA only decreases the growth of LNCaP cells by <25%, which is equivalent to the inhibition by TasQ at 10 μM (FIG. 22). […] In contrast to normoxic in vitro conditions, cancers outgrow their blood supply in vivo, producing a TME that is hypoxic, nutrient-limited, and acidic (low pH). For example, when prostate cancer xenografts growing subcutaneously reach a size of ˜0.2-0.3 cc, the TME is already hypoxic with a pO2 of 3.6+/−1.5 mmHg compared to 37.5+/−8.6 mmHg in normal tissue (Dalrymple et al. Prostate 72, 638-648 (2012)). […]

[1] = system: HIF-1α protein in LNCaP cells; experiment: Nuclear HIF-1α protein level in LNCaP cells (immunoblot); assay type: cell-based, human; conditions: LNCaP cells in vitro, read-out: IC50 for decreasing nuclear HIF-1α protein
Method: Western Blot Analysis. Analysis and quantification of protein expression via immunoblot was performed as previously described (Brennen 2021). All assays were performed with total cell lysates from an equal number (i.e., 100,000) of cells loaded per lane for accurate comparisons across cell lines and conditions.
[…] is an HDAC4 client (see, e.g., Isaacs 2013) binding between AA 603-788 in its inhibitory domain to HDAC4 (Seo et al. FEBS Lett 583, 55-604 (2009)). As a client, the HDAC4/NCoR1/HDAC3 complex deacetylates the N-terminal lysines, which stabilizes and thus activates HIF-1α as a transcription factor (see, e.g., Isaacs 2013). In LNCaP cells under normoxic conditions, HIF-1α protein is low, cytoplasmic, and mostly unphosphorylated; while under hypoxic conditions, it is increased, nuclear, and phosphorylated (i.e., slower migrating band on western blot) (see, e.g., Isaacs 2013) (FIG. 30). HDAC4 KD in LNCaP prostate cancer cells prevents deacetylation-dependent stabilization, resulting in a reduction of nuclear HIF-1α protein (FIG. 31). […] The causal importance of decreased HIF-1α protein for in vivo growth was evaluated by knocking down HIF-1α protein expression in LNCaP cells (FIG. 31), and assessing xenograft growth.

[2] = Pharmacokinetic (PK) analysis after oral dosing in mice; assay type: in vivo, mouse; conditions: for half-life: oral, 10 mg/kg
Method: Oral Drug treatment. TasQ at the indicated dose was initially dissolved with equal molar 1 N sodium hydroxide. This solution was diluted with sterile water and the mixture stirred for 1 hr. The pH was then adjusted with 1 N HCl to 8.9 and 200 μL given daily via oral gavage.
Pharmacokinetic (PK) Analysis. Plasma or serum samples; 50 uL of plasma or serum was transferred into a 1.7 mL microfuge tube. Three volumes of acetonitrile containing 0.1% TFA was added and the sample was vortexed for 1 to 3 minute, then centrifuged at 13,000 RPM in a microcentrifuge. 120 uL of the resulting supernatant was loaded into a sample loop with a cut off volume of 100 uL and injected into the HPLC onto a C18 reverse phase column. The HPLC system was a WATERS 600 series quaternary system with a 2487 dual wavelength detector set at 215 nm and 332 nm. Mobile phase A was 5% Acetonitrile/water, 0.1% TFA Mobile phase B was 95% Acetonitrile/water, 0.1% TFA 1.5 mL/min 20% B to 98% B in 10 minutes, hold for 5 minutes return to initial condition for 4 minutes/Retention time for tasquinimod was 11 min, RT for ESATA20 was 13.3 min with no observable interference from endogenous mouse peaks.

| Compound | LNCaP growth when combined with 3 nM docetaxel (LNCaP cells) | IC50 (LNCaP cells; Homo sapiens, LNCaP line) [nM] | IC50 ([1]; Homo sapiens) [nM] | fold lower bioavailability than TasQ ([2]; 10 mg/kg oral) [fold] | drug bound to serum proteins ([2]; mouse, in vivo) [%] | half-life ([2]; mouse, serum, read-out: alpha half-life for tissue distribution (converted)) [h] | half-life ([2]; mouse, serum, read-out: beta half-life for serum elimination) [h] | Cmax ([2]; mouse, serum, 10 mg/kg oral dose) [µM] | inhibition at 10 µM (LNCaP cells; Homo sapiens, LNCaP, 10 μM, normoxic) [%] | IC50 [1] [nM] | Cmax ([2]; 10 mg/kg oral dose, read-out: serum Cmax) [µM] | serum drug level maintained ([2]; 4-week old FVB male mice, oral 10 mg/kg/d over 14 days) [µM] | Cmax ([2]; oral 5 mg/kg/d, 1 hr post-dosing, read-out: serum Cmax) [µM] |
| --- | --- | --- | --- | --- | --- | --- | --- | --- | --- | --- | --- | --- | --- |
| COc1cccc2c1c(O)c(C(=O)N(c1ccc(C(F)(F)F)cc1)C1CCCCC1)c(=O)n2C [ESATA-20] | completely inhibited | > 10000 | 1000 | 5.5 | > 98 | 3 | 10 to 12 | 7.91 |  |  |  |  |  |
| COc1cccc2c1c(O)c(C(=O)N(C)c1ccc(C(F)(F)F)cc1)c(=O)n2C [TasQ, Tasquinimod] | does not occur |  |  |  |  |  |  |  | < 25 | 2500 | 44 | > 1 | 20 |
